Assay: Precipitation on dilution of concentrated glibenclamide solutions
Format: physicochemical
Description: This formulation may also include a buffer, such as meglumine or diethanolamine. This formulation may also include a surfactant; for example, this solution may include Tween 80 (e.g., less than about 1 ug/ml or less than about 1 ug/mg of glibenclamide). This formulation can be stored in a refrigerator (e.g., at about 2-8° C.) or can be stored at room temperature. This formulation is suitable for dilution; for example, it may be diluted 1:1, or 1:2 for use in bolus injections. This formulation may also be diluted by larger amounts of diluent, to 1:50 for example, for administration of glibenclamide as an infusion over an extended period of time. Dilution with a buffered solution allows the reduction of the solution pH to physiological levels without causing precipitation of glibenclamide. […] Experiments investigating the effect of dilution of relatively high concentrations of SUR-active compounds were performed. […] These solutions were diluted as follows with each of these diluents (0.9% NaCl and 5% glucose solutions): 1 in 2; 1 in 4; 1 in 5; 1 in 10; 1 in 20; and 1 in 50.

precipitation on dilution (2 mg/ml in 100 mM meglumine buffer with 0.9% NaCl or 5% glucose, diluted 1 in 2, 4, 5, 10, 20 and 50 with these diluents): no precipitation | behaviour of drug during and following dilution (Example 1 formulation (40% PEG 300, 10% Ethanol, 50% water, about pH 9, 1 mg/ml) diluted 1:50 with Hartman's solution): remained in solution
Structure (SMILES): COc1ccc(Cl)cc1C(=O)NCCc1ccc(S(=O)(=O)NC(=O)NC2CCCCC2)cc1 [Glibenclamide, N-p-(2-[5-Chloro-2-methoxybenzamido]ethyl) benzenesulfonyl-N′-cyclohexylurea]

Source: patent publication US10688111B2, “Liquid formulations of compounds active at sulfonylurea receptors” (Biogen Chesapeake LLC, priority 2008, dated 2020)
